Test results: US10208081B2, “Bile acid derivatives as FXR/TGR5 agonists and methods of use thereof” (Enanta Pharmaceuticals, Inc., priority 2014, dated 2019)

Molecular target: human FXR (NR1H4) (Homo sapiens (Human), UniProt Q96RI1)
Test: Human FXR (NR1H4) Assay (Gal4 promoter driven luciferase reporter, Indigo Bioscience kit IB00601)
Assay type: cell-based
Conditions: for Efficacy (%): efficacy normalized to CDCA set as 100%; for EC50: potency ranges
Text: Assays Human FXR (NR1H4) Assay
Determination of a ligand mediated Gal4 promoter driven transactivation quantify ligand binding mediated activation of FXR. FXR Reporter Assay kit purchased from Indigo Bioscience (Catalogue number: IB00601) to determine the potency and efficacy of compound developed by Enanta that can induce FXR activation. The principle application of this reporter assay system is to quantify functional activity of human FXR. The assay utilizes non-human mammalian cells, CHO (Chinese hamster ovary) cells engineered to express human NR1H4 protein (referred to as FXR). Reporter cells also incorporate the cDNA encoding beetle luciferase which catalyzes the substrates and yields photon emission. Luminescence intensity of the reaction is quantified using a plate-reading luminometer, Envision. Reporter Cells include the luciferase reporter gene functionally linked to an FXR responsive promoter. Thus, quantifying changes in luciferase expression in the treated reporter cells provides a sensitive surrogate measure of the changes in FXR activity. […] The assay is according to the manufacturer's instructions. In brief, the assay was performed in white, 96 well plates using final volume of 100 ul containing cells with different doses of compounds. Retrieve Reporter Cells from −80° C. storage. Perform a rapid thaw of the frozen cells by transferring a 10 ml volume of 37° C. cell recovery medium into the tube of frozen cells. Recap the tube of Reporter Cells and immediately place it in a 37° C. water bath for 5-10 minutes. Retrieve the tube of Reporter Cell Suspension from the water bath. Sanitize the outside surface of the tube with a 70% alcohol swab, and then transfer it into the cell culture hood. Dispense 90 μl of cell suspension into each well of the 96-well Assay Plate. Transfer the plate into 37° C. incubator, allowing the cells adherent to the bottom of the well. Dilute compounds in Dilution Plate (DP), and administrate to cells at Assay Plate (AP). DMSO content of the samples was kept at 0.2%. Cells were incubated for additional 22 hours before luciferase activities were measured. Thirty minutes before intending to quantify FXR activity, remove Detection Substrate and Detection Buffer from the refrigerator and place them in a low-light area so that they may equilibrate to room temperature. Remove the plate's lid and discard all media contents by ejecting it into an appropriate waste container. Gently tap the inverted plate onto a clean absorbent paper towel to remove residual droplets. Cells will remain tightly adhered to well bottoms. Add 100 μl of luciferase detection reagent to each well of the assay plate. Allow the assay plate to rest at room temperature for at least 5 minutes following the addition of LDR. Set the instrument (Envision) to perform a single 5 second “plate shake” prior to reading the first assay well. Read time may be 0.5 second (500 mSec) per well.

Sequence of human FXR (NR1H4) (Q96RI1 whole entry, the tested form may be a part): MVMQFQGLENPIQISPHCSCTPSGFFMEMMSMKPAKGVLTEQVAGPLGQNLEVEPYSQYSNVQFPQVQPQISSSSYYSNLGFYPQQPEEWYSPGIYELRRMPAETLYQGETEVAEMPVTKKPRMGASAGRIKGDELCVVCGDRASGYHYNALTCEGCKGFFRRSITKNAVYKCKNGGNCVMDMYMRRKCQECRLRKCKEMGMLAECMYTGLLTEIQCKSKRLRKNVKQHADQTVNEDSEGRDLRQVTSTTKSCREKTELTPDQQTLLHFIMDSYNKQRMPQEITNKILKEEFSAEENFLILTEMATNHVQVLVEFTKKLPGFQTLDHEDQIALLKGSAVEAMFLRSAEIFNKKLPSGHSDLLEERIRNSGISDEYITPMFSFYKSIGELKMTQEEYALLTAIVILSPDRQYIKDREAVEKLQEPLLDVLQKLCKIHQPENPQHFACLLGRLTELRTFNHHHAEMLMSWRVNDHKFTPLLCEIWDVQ

Compound	Efficacy (%)	EC50 [nM]
CC[C@H]1[C@@H](O)[C@@H]2[C@H](CC[C@]3(C)[C@@H]([C@H](C)CCNC(=O)NC(C)C)CC[C@@H]23)[C@@]2(C)CC[C@@H](O)C[C@@H]12 [Example 7]	259	1000 to 10000
C[C@H](CCNC(=O)NS(=O)(=O)c1ccc(C(C)(C)C)cc1)[C@H]1CC[C@H]2[C@@H]3[C@H](O)C[C@@H]4C[C@H](O)CC[C@]4(C)[C@H]3CC[C@]12C [Example 110]	320	1000 to 10000
CC[C@H]1[C@@H](O)[C@@H]2[C@H](CC[C@]3(C)[C@@H]([C@H](C)CCNC(=O)NS(=O)(=O)N4CCCCC4)CC[C@@H]23)[C@@]2(C)CC[C@@H](O)C[C@@H]12 [Example 39]	379	< 100
CC[C@H]1[C@@H](O)[C@@H]2[C@H](CC[C@]3(C)[C@@H]([C@H](C)CCNC(=O)NS(=O)(=O)NC)CC[C@@H]23)[C@@]2(C)CC[C@@H](OC(=O)C(F)(F)F)C[C@@H]12 [Example 126]	238	1000 to 10000
CC[C@H]1[C@@H](O)[C@@H]2[C@H](CC[C@]3(C)[C@@H]([C@H](C)CCNC(=O)NS(=O)(=O)N4CCCCCC4)CC[C@@H]23)[C@@]2(C)CC[C@@H](O)C[C@@H]12 [Example 47]	361	< 100
CC[C@H]1[C@@H](O)[C@@H]2[C@H](CC[C@]3(C)[C@@H]([C@H](C)CCNC(=O)NS(C)(=O)=O)CC[C@@H]23)[C@@]2(C)CC[C@@H](O)C[C@@H]12 [Example 6]	269	100 to 1000
CC[C@H]1[C@@H](O)[C@@H]2[C@H](CC[C@]3(C)[C@@H]([C@H](C)CCNS(=O)(=O)c4ccc(C(C)(C)C)s4)CC[C@@H]23)[C@@]2(C)CC[C@@H](O)C[C@@H]12 [Example 134]	19	–
CC[C@H]1[C@@H](O)[C@@H]2[C@H](CC[C@]3(C)[C@@H]([C@H](C)CCNC(=O)NS(=O)(=O)c4c(F)c(F)c(F)c(F)c4F)CC[C@@H]23)[C@@]2(C)CC[C@@H](O)C[C@@H]12 [Example 92]	325	1000 to 10000
CC[C@H]1[C@@H](O)[C@@H]2[C@H](CC[C@]3(C)[C@@H]([C@H](C)CCNC(=O)NS(=O)(=O)c4ccc5c(c4)CCN5C(C)=O)CC[C@@H]23)[C@@]2(C)CC[C@@H](O)C[C@@H]12 [Example 62]	476	1000 to 10000
CC[C@H]1[C@@H](O)[C@@H]2[C@H](CC[C@]3(C)[C@@H]([C@H](C)CCNC(=O)NS(=O)(=O)c4ccc(-c5ccccc5)cc4)CC[C@@H]23)[C@@]2(C)CC[C@@H](O)C[C@@H]12 [Example 54]	273	< 100
CC[C@H]1[C@@H](O)[C@@H]2[C@H](CC[C@]3(C)[C@@H]([C@H](C)CCNC(=O)NS(N)(=O)=O)CC[C@@H]23)[C@@]2(C)CC[C@@H](O)C[C@@H]12 [Example 124]	195	1000 to 10000
CC[C@H]1[C@@H](O)[C@@H]2[C@H](CC[C@]3(C)[C@@H]([C@H](C)CCNC(=O)NS(=O)(=O)c4ccc(C)c(F)c4)CC[C@@H]23)[C@@]2(C)CC[C@@H](O)C[C@@H]12 [Example 16]	265	< 100
CC[C@H]1[C@@H](O)[C@@H]2[C@H](CC[C@]3(C)[C@@H]([C@H](C)CCNC(=O)NS(=O)(=O)c4ccc(C)cc4)CC[C@@H]23)[C@@]2(C)CC[C@@H](O)C[C@@H]12 [Example 93]	443	< 100
CC[C@H]1[C@@H](O)[C@@H]2[C@H](CC[C@]3(C)[C@@H]([C@H](C)CCCNC(=O)NS(=O)(=O)c4ccc(OC(F)(F)F)cc4)CC[C@@H]23)[C@@]2(C)CC[C@@H](O)C[C@@H]12 [Example 18]	319	< 100
CC[C@H]1[C@@H](O)[C@@H]2[C@H](CC[C@]3(C)[C@@H]([C@H](C)CNC(=O)NS(=O)(=O)c4ccc5c(c4)OCO5)CC[C@@H]23)[C@@]2(C)CC[C@@H](O)C[C@@H]12 [Example 117]	305	< 100
CC[C@H]1[C@@H](O)[C@@H]2[C@H](CC[C@]3(C)[C@@H]([C@H](C)CCNC(=O)NS(=O)(=O)N4CCN(C(=O)C(C)(C)C)CC4)CC[C@@H]23)[C@@]2(C)CC[C@@H](O)C[C@@H]12 [Example 85]	324	100 to 1000
CC[C@H]1[C@@H](O)[C@@H]2[C@H](CC[C@]3(C)[C@@H]([C@H](C)CCNC(=O)NS(=O)(=O)C4CCC(C)(C)CC4)CC[C@@H]23)[C@@]2(C)CC[C@@H](O)C[C@@H]12 [Example 101]	244	< 100
CC[C@H]1[C@@H](O)[C@@H]2[C@H](CC[C@]3(C)[C@@H]([C@H](C)CCNC(=O)NS(=O)(=O)c4ccc(OC(F)(F)F)cc4)CC[C@@H]23)[C@@]2(C)CC[C@@H](O)C[C@@H]12 [Example 2]	300	< 100
CC[C@H]1[C@@H](O)[C@@H]2[C@H](CC[C@]3(C)[C@@H]([C@H](C)CCNC(=O)NS(=O)(=O)N4CC(F)(F)C(F)(F)C4)CC[C@@H]23)[C@@]2(C)CC[C@@H](O)C[C@@H]12 [Example 81]	315	< 100
CC[C@H]1[C@@H](O)[C@@H]2[C@H](CC[C@]3(C)[C@@H]([C@H](C)CCCNC(=O)NS(=O)(=O)C4CC4)CC[C@@H]23)[C@@]2(C)CC[C@@H](O)C[C@@H]12 [Example 20]	334	100 to 1000
CC[C@H]1[C@@H](O)[C@@H]2[C@H](CC[C@]3(C)[C@@H]([C@H](C)CCNC(=O)NS(=O)(=O)c4ccc(C(F)(F)F)cc4)CC[C@@H]23)[C@@]2(C)CC[C@@H](O)C[C@@H]12 [Example 14]	295	100 to 1000
CC[C@H]1[C@@H](O)[C@@H]2[C@H](CC[C@]3(C)[C@@H]([C@H](C)CNC(=O)NS(=O)(=O)c4cccc(OC(F)(F)F)c4)CC[C@@H]23)[C@@]2(C)CC[C@@H](O)C[C@@H]12 [Example 116]	322	< 100
CC[C@H]1[C@@H](O)[C@@H]2[C@H](CC[C@]3(C)[C@@H]([C@H](C)CCNC(=O)NS(=O)(=O)N4CCC(C)(C)CC4)CC[C@@H]23)[C@@]2(C)CC[C@@H](O)C[C@@H]12 [Example 65]	498	< 100
CC[C@H]1[C@@H](O)[C@@H]2[C@H](CC[C@]3(C)[C@@H]([C@H](C)CCNC(=O)NS(=O)(=O)c4ccc(-c5cnc(C)o5)cc4C)CC[C@@H]23)[C@@]2(C)CC[C@@H](O)C[C@@H]12 [Example 79]	249	100 to 1000
CC[C@H]1[C@@H](O)[C@@H]2[C@H](CC[C@]3(C)[C@@H]([C@H](C)CCCNS(=O)(=O)c4ccccc4)CC[C@@H]23)[C@@]2(C)CC[C@@H](O)C[C@@H]12 [Example 10]	168	100 to 1000
CC[C@H]1[C@@H](O)[C@@H]2[C@H](CC[C@]3(C)[C@@H]([C@H](C)CCNC(=O)NS(=O)(=O)C4CC5CCC4C5)CC[C@@H]23)[C@@]2(C)CC[C@@H](O)C[C@@H]12 (stereo partly drawn) [Example 76]	290	< 100
CC[C@H]1[C@@H](O)[C@@H]2[C@H](CC[C@]3(C)[C@@H]([C@H](C)CCNC(=O)NS(=O)(=O)c4ccc5c(c4)OCCO5)CC[C@@H]23)[C@@]2(C)CC[C@@H](O)C[C@@H]12 [Example 58]	307	< 100
CC[C@H]1[C@@H](O)[C@@H]2[C@H](CC[C@]3(C)[C@@H]([C@H](C)CCNC(=O)NS(=O)(=O)c4cnccn4)CC[C@@H]23)[C@@]2(C)CC[C@@H](O)C[C@@H]12 [Example 64]	334	1000 to 10000
CC[C@H]1[C@@H](O)[C@@H]2[C@H](CC[C@]3(C)[C@@H]([C@H](C)CCNC(=O)NS(=O)(=O)N4CCC5(CC4)CC5)CC[C@@H]23)[C@@]2(C)CC[C@@H](O)C[C@@H]12 [Example 86]	390	< 100
